Experimental data as given in patent publication US7001900B2, “Azabicyclic compounds for the treatment of disease” (Pfizer Inc., priority 2002, dated 2006).

Biological target: T1, chimeric α7-5HT3 ion channel (UniProt P23979+P36544, M226I/T225I)
T1 construct: expressed in transfected cells
Test: Cell-based FLIPR assay of agonist activity on the chimeric α7-5HT3 receptor (Calcium Green fluorescence, intracellular calcium)
Conditions: SH-EP1 cells expressing chimeric α7-5HT3 ion channel
Source text: The cDNA encoding the N-terminal 201 amino acids from the human α7 nAChR that contain the ligand binding domain of the ion channel was fused to the cDNA encoding the pore forming region of the mouse 5HT3 receptor as described by Eisele J L, et al., Chimacric nicotinic-serotonergic receptor combines distinct ligand binding and channel specificities, Nature (1993), December 2;366(6454):479–83, and modified by Groppi, et al., WO 00/73431. The chimeric α7–5HT3 ion channel was inserted into pGS 175 and pGS 179 which contain the resistance genes for G-418 and hygromycin B, respectively. […]
To assay the activity of the α7–5HT3 ion channel, cells expressing the channel were plated into each well of either a 96 or 384 well dish (Corning #3614) and grown to confluence prior to assay. […] The activity of compounds on the chimeric α7–5HT3 ion channel was analyzed on FLIPR. […] Fluorescent emission was measured above 525 nanometers with an appropriate F-stop to maintain a maximal signal to noise ratio. Agonist activity of each compound was measured by directly adding the compound to cells expressing the chimeric α7-5HT3 ion channel and measuring the resulting increase in intracellular calcium that is caused by the agonist-induced activation of the chimeric ion channel. […]

T1 sequence (P36544+P23979 fused P36544:T225I/P36544:M226I): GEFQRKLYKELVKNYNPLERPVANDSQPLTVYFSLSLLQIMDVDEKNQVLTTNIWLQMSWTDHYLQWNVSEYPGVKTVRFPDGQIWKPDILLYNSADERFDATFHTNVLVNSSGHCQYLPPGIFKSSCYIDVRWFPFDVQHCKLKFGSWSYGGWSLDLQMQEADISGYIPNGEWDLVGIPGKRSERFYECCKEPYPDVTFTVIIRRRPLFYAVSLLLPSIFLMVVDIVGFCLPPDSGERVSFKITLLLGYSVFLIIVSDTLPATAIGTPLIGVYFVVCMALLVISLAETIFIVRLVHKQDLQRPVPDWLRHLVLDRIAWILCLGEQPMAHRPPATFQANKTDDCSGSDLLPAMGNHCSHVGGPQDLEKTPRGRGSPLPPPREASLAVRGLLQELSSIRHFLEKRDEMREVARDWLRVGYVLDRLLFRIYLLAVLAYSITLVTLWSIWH

## Cl.O=C(N[C@H]1CN2CCC1CC2)c1ccc2cccc(O)c2n1 [Example 8, N-[(3R)-1-azabicyclo[2.2.2]oct-3-yl]-8-hydroxyquinoline-2-carboxamide hydrochloride]
  EC50 (effective concentration needed to cause a 50% maximal increase in intracellular calcium): inactive
